Data taken from publication PMC5402281, “Functional, thermodynamics, structural and biological studies of in silico-identified inhibitors of Mycobacterium tuberculosis enoyl-ACP(CoA) reductase enzyme” (Scientific Reports, 2017).
Like-named read-outs stand apart in the source and are kept apart here. Marks after values point to notes of the source that are not given here.

Key:
M. tuberculosis H37Rv = test: microbe, parasite or virus in culture; type: cell-based; conditions: Mycobacterium tuberculosis, 216 h, 7 days + 48 h resazurin, read-out: MIC H37Rv
[1] = test system: M. tuberculosis H37Rv in infected RAW 264.7 macrophages; test: Intracellular activity in M. tuberculosis-infected macrophages (CFU); type: cell-based, Mycobacterium tuberculosis; conditions: 5 μM; for decrease in CFU counts compared to early control / decrease in CFU counts compared to untreated late control: 5 days; for Mean log CFU/well ± SEM: 5 days of incubation
MtInhA [2] = biological target: T1, MtInhA (Mycobacterium tuberculosis, UniProt P9WGR1); test: MtInhA enzyme inhibition by steady-state kinetics (NADH oxidation at 340 nm); type: biochemical; conditions: for inhibitory activity towards MtInhA: IC50 screening; for mode of inhibition with respect to NADH / mode of inhibition with respect to DD-CoA: Lineweaver-Burk plot; for IC50: NADH 60 μM, DD-CoA 45 μM, 25 °C, Pipes pH 7.0, read-out: IC50; for Ki: EI complex; for Ki DD-CoA Kii / Ki NADH Kii: ESI complex
T1 construct: made in house
T1 sequence (P9WGR1 whole entry, looked up): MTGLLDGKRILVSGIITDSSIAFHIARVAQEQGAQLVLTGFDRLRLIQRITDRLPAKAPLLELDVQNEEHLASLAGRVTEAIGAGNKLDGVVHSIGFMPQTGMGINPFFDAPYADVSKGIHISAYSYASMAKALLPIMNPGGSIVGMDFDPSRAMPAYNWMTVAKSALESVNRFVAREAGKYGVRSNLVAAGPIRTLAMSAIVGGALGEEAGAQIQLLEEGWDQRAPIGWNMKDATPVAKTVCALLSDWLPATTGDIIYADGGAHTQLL
Method: In order to assess the relative potency of the compounds, inhibition studies were performed by steady-state kinetic studies using a UV-2550 UV/Visible spectrophotometer (Shimadzu^©), monitoring the NADH oxidation at 340 nm (εβ-NADH = […]), in the forward direction. Experiments were performed at 25 °C, in 100 mM Pipes pH 7.0 and were started with the addition of the 2.2 μM MtInhA to a total reaction volume of 500 μL, and monitoring the change in absorbance for 1 min. […] This is needed as IC50 and classical competitive, non-competitive and uncompetitive inhibition modes follow a rapid equilibrium process. Accordingly, MtInhA (2.2 μM) was pre-incubated with inhibitor (10 μM), aliquots were taken at different times and added to the reaction mixture containing NADH (60 μM) and DD-CoA (45 μM), and initial velocity measurements were plotted as a function of time of pre-incubation[6]. Control experiments were carried out pre-incubating MtInhA (2.2 μM) with DMSO (5%) in the absence of inhibitors, and initial velocity measured as a function of time of pre-incubation[6].
The IC50 value, which defines the concentration of inhibitor required to […], was calculated for each compound. The maximal rate for the enzyme reaction was determined in the absence of inhibitor, in the presence of fixed non-saturating concentration of NADH (60 μM ≅ Km) and DD-CoA (45 μM ≅ Km)[10][11][14]. The reaction velocity was analyzed as the percentage of inhibition as a function of inhibitor concentration and data were fitted to Eq 1.
The most promising compounds were further evaluated to assess the inhibition profile and to determine the inhibition constant (Ki). Initial rates were measured as a function of NADH concentration (10–160 μM) at fixed non-saturating DD-CoA concentration (45 μM) and fixed-varied inhibitor concentrations (0.5–120 μM). The Ki values towards NADH were calculated using the uncompetitive equation (Eq. 2) for compounds Labio_6 and Labio_16, in which [I] is the inhibitor concentration, [S] is the substrate concentration, Km and Vmax are, respectively, the Michaelis-Menten constant and maximum velocity, and Kii is the overall inhibition constant for the ESI complex. The Ki of Labio_03 was determined previously.
For compounds Labio_2, Labio_11, Labio_15 and Labio_17, the Ki values with respect to NADH were calculated using Eq. 3, which describes a non-competitive inhibition, where [I] is the inhibitor concentration, [S] is the substrate concentration, Km and Vmax are, respectively, the Michaelis-Menten constant and maximum velocity, Kii is the overall inhibition constant for the ESI complex and Kis is the overall inhibition constant for the EI complex.
Inhibition studies were also carried out in the presence of fixed non-saturating concentration of NADH (60 μM) and fixed-varied inhibitor concentrations (0.5–120 μM), when DD-CoA was the variable substrate (15–135 μM). For compounds Labio_2, Labio_6, and Labio_16, the inhibition constants for the DD-CoA substrate were determined using Eq. 3 for the non-competitive mode of inhibition. For compounds Labio_11, Labio_15 and Labio_17, the Ki for this substrate were calculated from data fitting to the equation for competitive inhibition (Eq. 4), in which [I] is the inhibitor concentration, [S] is the substrate concentration, Km and Vmax are, respectively, the Michaelis-Menten constant and maximum velocity, and Kis is the overall inhibition constant for the EI complex.

[3] = biological target: T2, MtInhA:NADH binary complex (Mycobacterium tuberculosis, UniProt P9WGR1); test: biochemical; type: binding; conditions: for Kd: 25 °C (298.15 K); for ΔG: estimated from ΔH and ΔS (Eq. 7); for ΔH / ΔS: van't Hoff analysis, 15–30 °C
T2 construct: made in house
T2 sequence (P9WGR1 whole entry, looked up, one chain of several): as the sequence (P9WGR1 whole entry, looked up) above

MtInhA [4] = biological target: T1, MtInhA; design: method as in PMID 23889525; conditions: ESI complex; determined previously ref 12; cited from earlier work
[5] = varied DD-CoA 15–135 μM, fixed NADH 60 μM, read-out: Ki DD-CoA Kis
[6] = varied DD-CoA 15–135 μM, fixed NADH 60 μM
[7] = varied NADH 10–160 μM, fixed DD-CoA 45 μM, read-out: Ki NADH Kis
[8] = varied NADH 10–160 μM, fixed DD-CoA 45 μM

Row | Compound | MIC (M. tuberculosis H37Rv) [µg/mL] | inhibitory activity towards MtInhA (MtInhA [2]) | mode of inhibition with respect to NADH (MtInhA [2]; fixed DD-CoA 45 μM) | mode of inhibition with respect to DD-CoA (MtInhA [2]; fixed NADH 60 μM) | IC50 (MtInhA [2]) [µM] | Kd [3] [µM] | ΔG [3] [kcal/mol] | ΔH [3] [kcal/mol] | ΔS [3] [cal.mol^−1.K^−1] | further results
1 | NNC(=O)c1ccncc1 [INH, Isoniazid] | 0.31 |  |  |  |  |  |  |  |  | decrease in CFU counts compared to early control [1]: 1.7 log10; decrease in CFU counts compared to untreated late control [1]: 2.3 log10; Mean log CFU/well ± SEM [1]: 2.4 ± 0.1***^+++ log CFU/well
2 | O=C(Cc1csc(-c2ccccn2)n1)Nc1ccccc1Oc1ccccc1 [Labio_1] | > 10 | no inhibitory activity |  |  |  |  |  |  |  | 
3 | Cc1nc([C@H](C)NC(=O)c2ccc3oc(Cc4ccccc4F)nc3c2)cs1 [Labio_2] | > 100 |  | non-competitive | non-competitive | 18 ± 2 | 2.2 ± 0.2 | -7.7 ± 0.7 | -37.7 ± 2.7 | −100.5 ± 9.2 | Ki (MtInhA [2]; [5]): 0.7 ± 0.4 µM; Ki DD-CoA Kii (MtInhA [2]; [6]): 0.7 ± 0.2 µM; Ki (MtInhA [2]; [7]): 2.3 ± 0.8 µM; Ki NADH Kii (MtInhA [2]; [8]): 2.2 ± 0.6 µM
4 | CCCOc1ccc(-c2nnc(NC(=O)Nc3ccccc3C)s2)cc1 [Labio_3] | 11.2 |  | uncompetitive | uncompetitive | 19 ± 2 | 4.4 ± 0.4 | -7.4 ± 0.7 | -27.8 ± 1.8 | −68.5 ± 6.3 | Ki DD-CoA Kii (MtInhA [4]): 20 ± 2 µM; Ki NADH Kii (MtInhA [4]): 24 ± 3 µM
5 | COc1ccc(CCC(=O)Nc2nn3cc(-c4ccccc4)nc3s2)cc1 [Labio_6] | > 10 |  | uncompetitive | non-competitive | 9.8 ± 0.9 | 3.1 ± 0.4 | -7.6 ± 0.7 | -44.7 ± 3.6 | −124.2 ± 12.3 | Ki (MtInhA [2]; [5]): 0.7 ± 0.2 µM; Ki DD-CoA Kii (MtInhA [2]; [6]): 0.7 ± 0.1 µM; Ki NADH Kii (MtInhA [2]; [8]): 1.8 ± 0.2 µM
6 | Cc1cccc(NC(=O)/C(C#N)=C/c2ccc(OCc3ccccc3)cc2)n1 [Labio_7] | > 10 | no inhibitory activity |  |  |  |  |  |  |  | 
7 | Cc1ccc(N2C[C@@H](c3nc(-c4ccc(OC(C)C)cc4)no3)CC2=O)cc1C [Labio_8] | > 10 | no inhibitory activity |  |  |  |  |  |  |  | 
8 | Cc1cc(NC(=O)Cc2csc(-c3ccsc3)n2)ccc1Br [Labio_9] | > 10 | no inhibitory activity |  |  |  |  |  |  |  | 
9 | COc1ccc(-c2n[nH]cc2/C=N\NC(=O)c2cc(C)nc3c(C)cccc23)cc1 [Labio_11] | > 100 |  | non-competitive | competitive | 87 ± 3 | 17.9 ± 1.1 | -6.5 ± 0.9 | -18.7 ± 1.7 | −40.9 ± 5.9 | Ki (MtInhA [2]; [5]): 27 ± 3 µM; Ki (MtInhA [2]; [7]): 44 ± 14 µM; Ki NADH Kii (MtInhA [2]; [8]): 41 ± 6 µM
10 | O=C(CNC(=O)c1ccc2c(c1)OCO2)Nc1ccc(Nc2ccccc2)cc1 [Labio_12] | > 100 | no inhibitory activity |  |  |  |  |  |  |  | 
11 | Cc1ccc(N2C[C@@H](c3nc(-c4ccc(OC(C)C)cc4)no3)CC2=O)c(C)c1 [Labio_13] | > 10 | no inhibitory activity |  |  |  |  |  |  |  | 
12 | CCN(CC)Cc1cc(-c2ccnc3cc(Cl)ccc23)ccc1O [Labio_15] | 25 |  | non-competitive | competitive | 83 ± 2 | 29.4 ± 2.1 | -6.2 ± 1.5 | -9.6 ± 0.8 | −11.5 ± 2.8 | Ki (MtInhA [2]; [5]): 74 ± 8 µM; Ki (MtInhA [2]; [7]): 110 ± 26 µM; Ki NADH Kii (MtInhA [2]; [8]): 110 ± 11 µM
13 | COc1cccc(-c2cccc(NC(=O)C3CCN(CC=C(C)C)CC3)c2)c1 [Labio_20] | 23.8 | no inhibitory activity |  |  |  |  |  |  |  | 
14 | CO[C@H]1/C=C/O[C@@]2(C)Oc3c(C)c(O)c4c(O)c(c(/C=N/N5CCN(C)CC5)c(O)c4c3C2=O)NC(=O)/C(C)=C\C=C\[C@H](C)[C@H](O)[C@@H](C)[C@@H](O)[C@@H](C)[C@H](OC(C)=O)[C@@H]1C [Rifampin] |  |  |  |  |  |  |  |  |  | decrease in CFU counts compared to early control [1]: 1.7 log10; decrease in CFU counts compared to untreated late control [1]: 2.3 log10; Mean log CFU/well ± SEM [1]: 2.4 ± 0.1***^+++ log CFU/well
